Drawing on ChEMBL document CHEMBL3045626, “Interaction of 2-(4-Methylphenoxy)triethylamine and Related Compounds with Its Herbicide Target in the Carotenoid Biosynthetic Pathway” (J Pestic Sci, 1998), this text covers Activity and IC50 for 7 compounds.

Each structure is given as a SMILES string.

The target in assay [1] is T1, Lycopene beta-cyclase (Pantoea ananas) (UniProt P21687).
T1 sequence (whole entry): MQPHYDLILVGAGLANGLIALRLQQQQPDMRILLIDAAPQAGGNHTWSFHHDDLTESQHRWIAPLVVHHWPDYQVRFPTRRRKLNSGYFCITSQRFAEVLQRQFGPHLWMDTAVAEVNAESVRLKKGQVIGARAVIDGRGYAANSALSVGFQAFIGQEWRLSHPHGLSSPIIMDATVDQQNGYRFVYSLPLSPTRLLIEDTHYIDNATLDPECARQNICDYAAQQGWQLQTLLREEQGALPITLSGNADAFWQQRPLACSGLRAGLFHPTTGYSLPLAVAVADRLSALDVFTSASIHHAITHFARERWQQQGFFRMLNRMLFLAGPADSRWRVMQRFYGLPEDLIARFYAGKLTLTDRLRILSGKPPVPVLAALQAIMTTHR
The assay is described as follows: Inhibition of Pantoea ananatis lycopene cyclase assessed as residual enzyme activity at 10 mM.

Assay [2] concerns the target T1, Lycopene beta-cyclase (Pantoea ananas). The assay is described as follows: Inhibition of Pantoea ananatis lycopene cyclase assessed as residual enzyme activity at 0.5 mM.
Assay [3] deals with T2, Lycopene beta-cyclase (Pantoea ananas, UniProt P21687).
T2 sequence (P21687 whole entry): T1 sequence (whole entry)
The assay is described as follows: Inhibition of Pantoea ananatis lycopene cyclase. Particulars: read-out: I50.

`Cc1cc(OC(=O)N2CCCCC2)c(C(C)C)cc1[N+](C)(C)C`: in assay [1], the Activity was determined as 36%.
`O=CC(=O)c1ccccc1`: the Activity in assay [2] was 92%.
Regarding `CCN(CC)CCOc1ccc(C)cc1`, the IC50 in assay [3] stood at 12 µM.
Regarding `CC(=O)C(C)=O`, the Activity in assay [2] turned out to be 90%.
Turning to `CN1CCC[C@H]1c1cccnc1` [NICOTINE], in assay [3], the IC50 came to 4.8 µM. The Activity in assay [1] amounted to 64%.
`NC(=O)CI`: in assay [2], the Activity was 87%.
Regarding `CCN1C(=O)C=CC1=O`, the Activity in assay [2] is 83%.
